Results reported in patent US8258260B2, “Tumor-associated peptides binding promiscuously to human leukocyte antigen (HLA) class II molecules” (Immatics Biotechnologies GmbH, priority 2005, dated 2012).

Tested on: CD4-positive T-cells
Assay: In vitro T-cell priming with peptide-pulsed autologous DCs, intracellular IFNγ staining of CD4-positive T-cells
Format: cell-based, human
Conditions: for CD4+ T-cell IFNγ response to peptide: donors 1, 2 and 3, positive = more than two-fold over negative controls
Description: Maturation of DCs: DCs were prepared using blood from healthy donors. Briefly, PBMCs were isolated using standard gradient centrifugation (Lymphocyte Separation Medium, PAA Laboratories GmbH, Pasching, Austria) and plated at a density of 7×10^6 cells/ml in X-Vivo 15 medium. After 2 hours at 37° C., non-adherent cells were removed and adherent monocytes cultured for 6 days in X-Vivo medium with 100 ng/ml GM-CSF and 40 ng/ml IL-4 (AL-ImmunoTools, Friesoythe, Germany). On day 7, immature DCs were activated with 10 ng/ml TNF-α (R&D Systems, Wiesbaden, Germany) and 20 μg/ml poly(IC) (Sigma Aldrich, Steinheim, Germany) for 3 days.
Generation of antigen-specific CD4-positive T-cells: 10^6 PBMCs per well were stimulated with 2×10^5 peptide pulsed (5 μg/ml) autologous DCs. Cells were incubated in 96-well plates (7 wells per donor and per peptide) with T-cell medium: supplemented RPMI 1640 in the presence of 10 ng/ml IL-12 (Promocell, Heidelberg, Germany). After 3 to 4 days of co-incubation at 37° C., fresh medium with 80 U/ml IL-2 (Proleukin, Chiron Corporation, Emeryville, Calif., USA) and 5 ng/ml IL-7 (Promocell) was added. Restimulations were done with autologous PBMCs plus peptide every 6 to 8 days.
Intracellular IFNγ staining: After 3 and 4 rounds of stimulation, PBMCs were thawed, washed twice in X-Vivo 15 medium, resuspended at 10^7 cells/ml in T-cell medium and cultured overnight. On the next day, PBMCs, pulsed with 5 μg/ml peptide, were incubated with effector cells in a ratio of 1:1 for 6 h. Golgi-Stop (Becton Dickinson, Heidelberg, Germany) was added for the final 4 h of incubation.
Cells were analyzed using a Cytofix/Cytoperm Plus kit (Becton Dickinson) and CD4-FITC-(Immunotools), IFNγ-PE- and CD8-PerCP clone SK1-antibodies (Becton Dickinson). For negative controls, cells of seven wells were pooled and incubated either with irrelevant peptide or without peptide, respectively. Stimulation with PMA/Ionomycin was used for positive control. Cells were analyzed on a three-color FACSCalibur (Becton Dickinson).
To generate antigen-specific CD4-positive T-cells and to test the peptides for promiscuous binding, PBMCs of 4 healthy donors with different HLA-DR alleles (FIG. 2), one of them carrying DRB1*1101, were stimulated using peptide-pulsed autologous DCs. […] As a read-out system for the generation of antigen-specific CD4-positive T-cells, IFNγ levels were assessed by flow cytometry. T-cells were analyzed after the third and fourth weekly stimulation by intracellular IFNγ staining plus CD4-FITC and CD8-PerCP staining to determine the percentage of IFNγ-producing cells in specific T-cell subpopulations. […]

| Sequence | maximal frequency of IFNγ producing CD4+ T-cells (donor 2) [%] | maximal frequency of IFNγ producing CD4+ T-cells (donor 3) [%] | CD4+ T-cell IFNγ response to peptide |
| --- | --- | --- | --- |
| HSKIIIIKKGHAK (listed as Homo sapiens) [SEQ ID NO: 48] | 0.05 | 0.07 | – |
| NPPSMVAAGSVVAAV (listed as Homo sapiens) [SEQ ID NO: 49] | – | – | showed IFNγ responses |
| SQDDIKGIQKLYGKRS [SEQ ID NO: 1] | – | – | showed CD4^+ T-cells reactive |
